# Assay results published in PubChem BioAssay (NCI).
#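 Test compounds were applied to cells in 96-well plates for 48 hours at 5 doses. TGI: total growth inhibition.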
# Legend:
# Assay in all cases: inhibition of tumour cell growth, NCI panel, 48 h
# A498 renal = test system: A498 renal
# OVCAR-4 ovarian = test system: OVCAR-4 ovarian
# MALME-3M melanoma = test system: MALME-3M melanoma
# NCI/ADR-RES ovarian = test system: NCI/ADR-RES ovarian
# MDA-MB-231 breast = test system: MDA-MB-231 breast
# HT29 colon = test system: HT29 colon
# SR leukemia = test system: SR leukemia
# OVCAR-5 ovarian = test system: OVCAR-5 ovarian
# TK-10 renal = test system: TK-10 renal
# MDA-MB-435 = test system: MDA-MB-435
# CCRF-CEM leukemia = test system: CCRF-CEM leukemia
# SNB-75 CNS = test system: SNB-75 CNS
# ACHN renal = test system: ACHN renal
# KM12 colon = test system: KM12 colon
# CAKI-1 renal = test system: CAKI-1 renal
# SN12C renal = test system: SN12C renal
# MOLT-4 leukemia = test system: MOLT-4 leukemia
# 786-0 renal = test system: 786-0 renal
# HOP-62 NSCLC = test system: HOP-62 NSCLC
# LOX IMVI melanoma = test system: LOX IMVI melanoma
# T-47D breast = test system: T-47D breast
# SF-295 CNS = test system: SF-295 CNS
# RPMI-8226 leukemia = test system: RPMI-8226 leukemia
# A549 NSCLC = test system: A549 NSCLC
# K-562 leukemia = test system: K-562 leukemia
# OVCAR-8 ovarian = test system: OVCAR-8 ovarian
# OVCAR-3 ovarian = test system: OVCAR-3 ovarian
# SK-MEL-2 melanoma = test system: SK-MEL-2 melanoma
# SK-MEL-28 melanoma = test system: SK-MEL-28 melanoma
# UO-31 renal = test system: UO-31 renal
# HS 578T breast = test system: HS 578T breast
# SK-MEL-5 melanoma = test system: SK-MEL-5 melanoma
# NCI-H23 lung = test system: NCI-H23 lung
# UACC-62 melanoma = test system: UACC-62 melanoma
# HCT-15 colon = test system: HCT-15 colon
# UACC-257 melanoma = test system: UACC-257 melanoma
# BT-549 breast = test system: BT-549 breast
# SF-539 CNS = test system: SF-539 CNS
# HCC-2998 colon = test system: HCC-2998 colon
# HCT-116 colon = test system: HCT-116 colon
# PC-3 prostate = test system: PC-3 prostate
# MDA-N = test system: MDA-N
# IGROV1 ovarian = test system: IGROV1 ovarian
# MCF7 breast = test system: MCF7 breast
# HL-60(TB) leukemia = test system: HL-60(TB) leukemia
# RXF 393 renal = test system: RXF 393 renal
# NCI-H226 lung = test system: NCI-H226 lung
# SK-OV-3 ovarian = test system: SK-OV-3 ovarian
# DU-145 prostate = test system: DU-145 prostate
# NCI-H460 lung = test system: NCI-H460 lung
# SW-620 colon = test system: SW-620 colon
# NCI-H522 lung = test system: NCI-H522 lung
# COLO 205 colon = test system: COLO 205 colon
# SF-268 CNS = test system: SF-268 CNS
# U251 CNS = test system: U251 CNS
# HOP-92 NSCLC = test system: HOP-92 NSCLC
# SNB-19 CNS = test system: SNB-19 CNS
# EKVX NSCLC = test system: EKVX NSCLC
# M14 melanoma = test system: M14 melanoma
smiles,measurement,setting,value
CCCCCn1c(=O)c2c(=O)[nH][nH]c2c2ccccc21,TGI,A498 renal,> 100 µM
same,TGI,OVCAR-4 ovarian,> 100 µM
same,TGI,MALME-3M melanoma,> 100 µM
same,TGI,NCI/ADR-RES ovarian,> 100 µM
same,TGI,MDA-MB-231 breast,> 100 µM
same,TGI,HT29 colon,> 100 µM
same,TGI,SR leukemia,> 100 µM
same,TGI,OVCAR-5 ovarian,> 100 µM
same,TGI,TK-10 renal,> 100 µM
same,TGI,MDA-MB-435,> 100 µM
same,TGI,CCRF-CEM leukemia,> 100 µM
same,TGI,SNB-75 CNS,> 100 µM
same,TGI,ACHN renal,> 100 µM
same,TGI,KM12 colon,> 100 µM
same,TGI,CAKI-1 renal,> 100 µM
same,TGI,SN12C renal,> 100 µM
same,TGI,MOLT-4 leukemia,> 100 µM
same,TGI,786-0 renal,> 100 µM
same,TGI,HOP-62 NSCLC,> 100 µM
same,TGI,LOX IMVI melanoma,> 100 µM
same,TGI,T-47D breast,> 100 µM
same,TGI,SF-295 CNS,> 100 µM
same,TGI,RPMI-8226 leukemia,> 100 µM
same,TGI,A549 NSCLC,> 100 µM
same,TGI,K-562 leukemia,> 100 µM
same,TGI,OVCAR-8 ovarian,> 100 µM
same,TGI,OVCAR-3 ovarian,> 100 µM
same,TGI,SK-MEL-2 melanoma,> 100 µM
same,TGI,SK-MEL-28 melanoma,> 100 µM
same,TGI,UO-31 renal,> 100 µM
same,TGI,HS 578T breast,> 100 µM
same,TGI,SK-MEL-5 melanoma,> 100 µM
same,TGI,NCI-H23 lung,> 100 µM
same,TGI,UACC-62 melanoma,> 100 µM
same,TGI,HCT-15 colon,> 100 µM
same,TGI,UACC-257 melanoma,> 100 µM
same,TGI,BT-549 breast,> 100 µM
same,TGI,SF-539 CNS,> 100 µM
same,TGI,HCC-2998 colon,> 100 µM
same,TGI,HCT-116 colon,> 100 µM
same,TGI,PC-3 prostate,> 100 µM
same,TGI,MDA-N,> 100 µM
same,TGI,IGROV1 ovarian,> 100 µM
same,TGI,MCF7 breast,> 100 µM
same,TGI,HL-60(TB) leukemia,> 100 µM
same,TGI,RXF 393 renal,> 100 µM
same,TGI,NCI-H226 lung,> 100 µM
same,TGI,SK-OV-3 ovarian,> 100 µM
same,TGI,DU-145 prostate,> 100 µM
same,TGI,NCI-H460 lung,> 100 µM
same,TGI,SW-620 colon,> 100 µM
same,TGI,NCI-H522 lung,> 100 µM
same,TGI,COLO 205 colon,> 100 µM
same,TGI,SF-268 CNS,> 100 µM
same,TGI,U251 CNS,> 100 µM
same,TGI,HOP-92 NSCLC,> 100 µM
CCn1c2ccc(O)c(C(=O)OC)c2c2cc3ccccc3c(O)c21,TGI,A498 renal,39.5 µM
same,TGI,OVCAR-4 ovarian,75.1 µM
same,TGI,MALME-3M melanoma,20.7 µM
same,TGI,NCI/ADR-RES ovarian,57.2 µM
same,TGI,MDA-MB-231 breast,> 100 µM
same,TGI,HT29 colon,56.2 µM
same,TGI,SR leukemia,57.6 µM
same,TGI,OVCAR-5 ovarian,73.3 µM
same,TGI,TK-10 renal,55.7 µM
same,TGI,MDA-MB-435,48.3 µM
same,TGI,CCRF-CEM leukemia,70 µM
same,TGI,ACHN renal,54.1 µM
same,TGI,KM12 colon,33.6 µM
same,TGI,CAKI-1 renal,33.6 µM
same,TGI,SN12C renal,41.6 µM
same,TGI,MOLT-4 leukemia,73.5 µM
same,TGI,786-0 renal,30.7 µM
same,TGI,HOP-62 NSCLC,45 µM
same,TGI,T-47D breast,34.1 µM
same,TGI,SF-295 CNS,64.5 µM
same,TGI,RPMI-8226 leukemia,33.3 µM
same,TGI,SNB-19 CNS,> 100 µM
same,TGI,A549 NSCLC,83 µM
same,TGI,K-562 leukemia,> 100 µM
same,TGI,OVCAR-8 ovarian,56.9 µM
same,TGI,OVCAR-3 ovarian,47.3 µM
same,TGI,SK-MEL-2 melanoma,36.6 µM
same,TGI,SK-MEL-28 melanoma,87.4 µM
same,TGI,UO-31 renal,> 100 µM
same,TGI,HS 578T breast,45.2 µM
same,TGI,SK-MEL-5 melanoma,38.5 µM
same,TGI,NCI-H23 lung,52.4 µM
same,TGI,UACC-62 melanoma,> 100 µM
same,TGI,HCT-15 colon,56 µM
same,TGI,UACC-257 melanoma,> 100 µM
same,TGI,BT-549 breast,50.7 µM
same,TGI,SF-539 CNS,49.2 µM
same,TGI,HCC-2998 colon,38.3 µM
same,TGI,EKVX NSCLC,67.4 µM
same,TGI,HCT-116 colon,29.2 µM
same,TGI,PC-3 prostate,78.8 µM
same,TGI,MDA-N,72.4 µM
same,TGI,IGROV1 ovarian,31.2 µM
same,TGI,MCF7 breast,> 100 µM
same,TGI,HL-60(TB) leukemia,60 µM
same,TGI,RXF 393 renal,> 100 µM
same,TGI,NCI-H226 lung,83.8 µM
same,TGI,SK-OV-3 ovarian,43.8 µM
same,TGI,DU-145 prostate,40.8 µM
same,TGI,M14 melanoma,47.5 µM
same,TGI,NCI-H460 lung,54.9 µM
same,TGI,NCI-H522 lung,41.2 µM
same,TGI,COLO 205 colon,29.5 µM
same,TGI,SF-268 CNS,63.6 µM
same,TGI,U251 CNS,69.2 µM
same,TGI,HOP-92 NSCLC,21.3 µM
